In publication PMC6445327, “Inhibition of the α-carbonic anhydrase from Vibrio cholerae with amides and sulfonamides incorporating imidazole moieties” (Journal of Enzyme Inhibition and Medicinal Chemistry, 2017):
≈ marks a conversion by molar mass, not a printed value.

What was measured:
[1] = system: V. cholerae O1 reference strain ATCC14103; test: In vitro antibacterial assay (broth dilution); type: cell-based, Vibrio cholerae; settings: for concentration inhibiting bacterial growth: 37 °C, 18–20 h, tryptic soy broth
[2] = system: V. cholerae O1 strain ISS-Vc014 (multiresistant clinical isolate); test: In vitro antibacterial assay (broth dilution); type: cell-based, Vibrio cholerae; settings: for concentration inhibiting bacterial growth: 37 °C, 18–20 h, tryptic soy broth
hCA I = target: T1, hCA I (Homo sapiens, UniProt P00915); test: Stopped-flow CO2 hydration assay, CA inhibition; type: biochemical
T1 construct: made in house
T1 sequence (P00915 whole entry): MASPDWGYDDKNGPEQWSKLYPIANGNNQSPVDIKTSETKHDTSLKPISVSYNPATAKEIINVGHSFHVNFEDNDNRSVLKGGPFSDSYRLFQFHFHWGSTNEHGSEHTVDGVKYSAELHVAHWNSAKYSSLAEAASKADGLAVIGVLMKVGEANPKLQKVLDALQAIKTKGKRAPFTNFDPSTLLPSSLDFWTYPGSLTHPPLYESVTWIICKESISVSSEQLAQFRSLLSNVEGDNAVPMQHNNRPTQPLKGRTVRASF
Protocol: (§1) The uncatalyzed rates were determined in the same manner and subtracted from the total observed rates. Stock solutions of inhibitor (0.01 mM) were prepared in distilled–deionised water with 5% DMSO and dilutions up to 0.1 nM were done thereafter with the assay buffer. The Inhibition constant (KI) was obtained by considering the classical Michaelis–Menten equation, which has been fitted by non-linear least squares by using PRISM 3. All CA isozymes used in the experiments were purified recombinant proteins obtained as reported earlier by our group.

hCA II = target: T2, hCA II (Homo sapiens, UniProt P00918); test: Stopped-flow CO2 hydration assay, CA inhibition; type: biochemical
T2 construct: made in house
Protocol: as §1

[3] = target: VchCA (Vibrio cholerae α-carbonic anhydrase) (Vibrio cholerae, UniProt Q9KMP6); test: biochemical
VchCA (Vibrio cholerae α-carbonic anhydrase), sequence (Q9KMP6 entry or part of it): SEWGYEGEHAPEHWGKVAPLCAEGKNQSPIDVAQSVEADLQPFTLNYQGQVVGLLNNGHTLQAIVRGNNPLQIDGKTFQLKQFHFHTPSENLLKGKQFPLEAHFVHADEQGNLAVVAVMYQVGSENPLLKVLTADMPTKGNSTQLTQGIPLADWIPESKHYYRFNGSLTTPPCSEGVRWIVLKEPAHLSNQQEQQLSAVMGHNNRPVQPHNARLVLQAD
Protocol: as §1

[4] = system: two V. cholerae O1 strains (ATCC14103 and ISS-Vc014); test: In vitro antibacterial assay (broth dilution), strain not distinguished; type: cell-based, Vibrio cholerae; settings: up to 3 mg ml^−1 (the limit of solubility)
[5] = Limit of solubility in the antibacterial test; settings: 37 °C

Compound	concentration inhibiting bacterial growth [1]	concentration inhibiting bacterial growth [2] [mg/mL]	melting point [°C]	Ki (hCA I) [µM]	Ki (hCA II) [µM]	Ki [3] [µM]	activity compared to ampicillin [1]	activity compared to ampicillin [2]	inhibition of the bacterial growth at higher concentrations [4]	solubility [5] [mg/mL]
CC1(C)S[C@@H]2[C@H](NC(=O)[C@H](N)c3ccccc3)C(=O)N2[C@H]1C(=O)O [Ampicillin, reference compound]	higher than 0.01 mg ml^−1	1.0	–	–	–	–	–	–	–	–
CS(=O)(=O)NCCCn1ccnc1 [Compound 1, N-(3-(1H-imidazol-1-yl)propyl)methanesulfonamide]	–	–	89 to 91	0.387	> 10	0.0109	–	–	–	–
O=S(=O)(NCCCn1ccnc1)c1ccc(F)cc1 [Compound 2, N-(3-(1H-imidazol-1-yl)propyl)-4-fluorobenzenesulfonamide]	2 mg/mL	2	121 to 123	1.7	> 10	0.0085	less active	comparable activity	–	–
O=S(=O)(NCCCn1ccnc1)c1ccc(C(F)(F)F)cc1 [Compound 3, N-(3-(1H-imidazol-1-yl)propyl)-4-(trifluoromethyl)benzenesulfonamide]	–	–	127 to 128	> 50	> 50	0.0064	–	–	–	–
O=[N+]([O-])c1ccc(S(=O)(=O)NCCCn2ccnc2)cc1 [Compound 4, N-(3-(1H-imidazol-1-yl)propyl)-4-nitrobenzenesulfonamide]	–	–	140 to 141	> 50	> 50	0.0062	–	–	–	–
CC(=O)NCCCn1ccnc1 [Compound 5, N-(3-(1H-imidazol-1-yl)propyl)acetamide]	–	–	–	> 50	> 50	0.0392	–	–	–	–
O=C(NCCCn1ccnc1)c1ccc(F)cc1 [Compound 6, N-(3-(1H-imidazol-1-yl)propyl)-4-fluorobenzamide]	–	–	70 to 72	> 50	> 50	0.0091	–	–	–	–
O=C(NCCCn1ccnc1)c1ccc(C(F)(F)F)cc1 [Compound 7, N-(3-(1H-imidazol-1-yl)propyl)-4-(trifluoromethyl)benzamide]	–	–	106 to 107	2.55	> 10	0.0104	–	–	not active	3 (≈ 10.1 mM)
O=C(NCCCn1ccnc1)c1ccc([N+](=O)[O-])cc1 [Compound 8, N-(3-(1H-imidazol-1-yl)propyl)-4-nitrobenzamide]	–	–	152 to 154	1.73	> 10	0.011	–	–	partially active	3 (≈ 10.9 mM)
O=C(NCCCn1ccnc1)c1ccc(-c2ccccc2)cc1 [Compound 9, N-(3-(1H-imidazol-1-yl)propyl)-[1,1′-biphenyl]-4-carboxamide]	–	–	–	> 50	> 50	0.0054	–	–	–	–
O=C(NCCCc1ccccc1)c1ccc([N+](=O)[O-])cc1 [Compound 10, 4-Nitro-N-(3-phenylpropyl)benzamide]	–	–	95 to 97	> 50	> 50	0.0078	–	–	–	–
